O=c1cc(CBr)c2ccccc2[nH]1
solubility (mole fraction)
Settings	278.15 K	283.15 K	288.15 K	293.15 K	298.15 K	303.15 K	308.15 K	313.15 K	318.15 K
in NMP	0.00539	0.00606	0.00705	0.0081	0.00928	0.0105	0.0119	0.0135	0.0151
in ethanol	0.00019	0.000211	0.000235	0.000261	0.000286	0.000316	0.000347	0.000378	0.000411
in isopropanol	0.000152	0.000175	0.000202	0.000229	0.00026	0.000293	0.000328	0.000365	0.000406
in n-propanol	0.000242	0.000269	0.000297	0.000325	0.000357	0.00039	0.00043	0.000466	0.000505
in water	4.78e-06	6.58e-06	9.12e-06	1.25e-05	1.67e-05	2.16e-05	2.88e-05	3.76e-05	4.76e-05
